These results are taken from patent publication US10092537B2, “Use for PAI-1 inhibitor” (RENASCIENCE CO., LTD., priority 2013, dated 2018).

In experiment [1] the test system is CML cells. Nature of the experiment: Chronic myelogenous leukemia model mice, imatinib with compound d or compound e (Experimental Example 17). The experiment is classed as in vivo. The conditions noted are these: imatinib 150 mg/kg/day alone. As to the method: (§1) Group 1: placebo group (physiological saline was administered via gavage)
(§2) Group 2: imatinib group (imatinib [150 mg/kg/day] was administered via gavage)
Group 3: imatinib+compound d group (imatinib [150 mg/kg/day] and compound d [10 mg/kg/day] were administered via gavage)
Group 4: imatinib+compound e group (imatinib [150 mg/kg/day] and compound e [10 mg/kg/day] were administered via gavage)
8 days after (day 8) the day (day 0) on which CML cells were intravenously inoculated, administration of test drugs to the groups was started. The placebo group and the imatinib group were administered the respective test drugs once a day from day 8 to day 14 (7 doses in total). The imatinib+compound d group and imatinib+compound e group were administered imatinib once a day from day 8 to day 14 (7 doses in total), and also administered compound d or e once a day from day 8 to day 14 (7 doses in total).

The test system of experiment [2] is CML cells. The experiment can be described thus: Chronic myelogenous leukemia model mice, imatinib, PAI-1 inhibitor and G-CSF neutralizing antibody (Experimental Example 14). The experiment is classed as in vivo. The protocol: In this experiment, whether G-CSF is involved in the effect was examined. Compound a was used as a PAI-1 inhibitor.
as §1
Group 2: IM group (imatinib [150 mg/kg/day] was administered via gavage)
Group 3: IM+anti-G-CSF group (imatinib [150 mg/kg/day] was administered via gavage, G-CSF neutralizing antibody [500 μg/kg/day] was subcutaneously administered)
Group 4: IM+TM group (imatinib [150 mg/kg/day] and compound a [100 mg/kg/day] were administered via gavage)
Group 5: IM+TM+anti-G-CSF group (imatinib [150 mg/kg/day] and compound a [100 mg/kg/day] were administered via gavage, and G-CSF neutralizing antibody [500 μg/kg/day] was subcutaneously administered)
The day on which CML cells were inoculated was set as day 0, and each test drug was administered from day 8 to day 14 (7 doses in total).

Experiment [3] relates to CML cells (32Dp210-GFP cells). Nature of the experiment: Chronic myelogenous leukemia model mice, imatinib and compound c (Experimental Example 12). The experiment is classed as in vivo. The conditions noted are these: imatinib 150 mg/kg/day alone. As to the method:
Chronic myelogenous leukemia model mice prepared in the same manner as in Experimental Example 11 were divided into the following 3 groups (each group: n=10), and the groups were administered respective test drugs in accordance with the protocol shown in FIG. 15A.
as §1, §2
(§3) Group 3: imatinib+compound c group (imatinib [150 mg/kg/day] and compound c [10 mg/kg/day] were administered via gavage)
8 days (day 8) after the day on which CML cells (32Dp210-GFP cells) were intravenously inoculated (day 0), administration of the test drugs to the groups was started. The placebo group and the imatinib group were administered the respective test drugs once a day from day 8 to day 14 (7 doses in total). The imatinib+compound c group was administered imatinib once a day from day 8 to day 14 (7 doses in total), and also administered compound c once a day from day 8 to day 14 (7 doses in total).

The subject of experiment [4] is CML cells. Nature of the experiment: Chronic myelogenous leukemia model mice, compound a alone, imatinib, combination (Experimental Example 16). The experiment is classed as in vivo. The settings on record: imatinib 150 mg/kg/day alone. The protocol: as §1
Group 2: compound a group (compound a [100 mg/kg/day] was administered via gavage)
Group 3: imatinib group (imatinib [150 mg/kg/day] was administered via gavage)
Group 4: imatinib+compound a group (imatinib [150 mg/kg/day] and compound a [100 mg/kg/day] were administered via gavage)
10 days after (day 10) the day on which CML cells were intravenously inoculated (day 0), administration of test drugs to the groups was started. The placebo group, the compound a group, and the imatinib group were administered the respective test drugs once a day from day 10 to day 16 (7 doses in total). The imatinib+compound a group was administered imatinib once a day from day 10 to day 16 (7 doses in total), and also administered compound a once a day from day 10 to day 16 (7 doses in total).

Experiment [5] deals with CML cells (32Dp210-GFP cells). The experiment can be described thus: Chronic myelogenous leukemia model mice, imatinib and compound a (Experimental Example 11). The experiment is classed as in vivo, C3H/HeJ mice. The settings on record: imatinib 150 mg/kg/day alone. As to the method:
p210(BCR-ABL) gene was inserted into a MIGR1 vector, and GFP cDNA was further incorporated as a reporter gene downstream of the gene (hereinafter, the vector is referred to as “p210-GFP”). p210-GFP was infected with 32D cells (C3H/HeJ mice cell line), and chronic myelogenous leukemia (hereinafter, referred to as “CML”) cells were prepared. 2.5×10^5 of the thus-obtained CML cells (32Dp210(BCR-ABL)-GFP cells, hereinafter, referred to as “32Dp210-GFP cells”) were intravenously administered into the retro-orbital plexus of C3H/HeJ mice. 7 to 10 days after the transplantation, the abundance ratio of GFP cells in the peripheral blood was analyzed, and mice with more than 3% of abundance ratio were used as chronic myelogenous leukemia model mice in the following experiments.
15 chronic myelogenous leukemia model mice prepared by using the procedure described above were divided into the following 3 groups (each group: n=15), and a test drug was administered to the mice in accordance with the protocol shown in FIG. 15A.
as §1, §2
Group 3: imatinib+compound a group (imatinib [150 mg/kg/day] and compound a [100 mg/kg/day] were administered via gavage)
10 days (day 10) after the day on which CML cells were intravenously inoculated (day 0), administration of test drugs to the groups was started. The placebo group and the imatinib group were administered the respective test drugs once a day from day 10 to day 16 (7 doses in total). The imatinib+compound a group was administered imatinib once a day from day 10 to day 16 (7 doses in total), and also administered compound a once a day from day 10 to day 14 (5 doses in total).
As described above, 32Dp210-GFP includes GFP as a reporter gene, and thus, the CML cells having 32Dp210-GFP inserted (32Dp210-GFP cells) are GFP-positive. Therefore, using FACS (FACS (BD Biosciences: FACSCalibur), the frequency of CML cells (32Dp210-GFP cells) in mononucleic cells of the bone marrow and spleen was measured and compared between the imatinib group and the imatinib+compound a group.

For experiment [6], the system named is CML cells. The experiment can be described thus: Chronic myelogenous leukemia model mice, CML cells engrafted onto bone marrow by FACS (Experimental Example 15). The experiment is classed as in vivo. As to the method:
Chronic myelogenous leukemia model mice prepared in accordance with the procedure of Experimental Example 11 (1) were divided into 3 groups (each group: n=15) and administered respective test drugs.
as §1, §2, §3
8 days (day 8) after the day on which CML cells were intravenously inoculated (day 0), administration of test drugs to the groups was started. The placebo group and the imatinib group were administered the respective test drugs once a day from day 8 to day 14 (7 doses in total). The imatinib+compound c group was administered imatinib once a day from day 8 to day 14 (7 doses in total), and also administered compound c once a day from day 8 to day 14 (7 doses in total).
CML cells engrafted onto bone marrow were analyzed by FACS immediately before the administration of a test drug (day 8; “immediately before antitumor agent treatment” in FIG. 19), immediately after the completion of administration of a test drug (day 14; “immediately after antitumor agent treatment” in FIG. 19), and day 28 from the start of administration of a test drug (day 36; “after 28 days” in FIG. 19). […] About 50% leukemia cells were grafted on the bone marrow immediately before administration of a test drug (day 8; “immediately before antitumor agent treatment” in FIG. 19). After the tumor-bearing mice were administered a test drug 7 times (day 14), the proportion of CML cells was analyzed. […] All of the mice in the group administered physiological saline died.
For orientation: A flow cytometer gives signals particle by particle.

Regarding `Cc1ccc(NC(=O)c2ccc(CN3CCN(C)CC3)cc2)cc1Nc1nccc(-c2cccnc2)n1` [imatinib, reference compound], the survival result is on record as “all of the mice died by day 40” with CML cells [1]; “all of the mice died by day 30” in the experiment on CML cells [2] (IM group: imatinib alone); “all of the mice died by day 30” with CML cells [2] (IM+anti-G-CSF group); “all of the mice died by day 35” in experiment [3]; “all of the mice died by day 40” in the experiment with CML cells [4]; “all of the mice died by day 40” in experiment [5]. The median survival period in the experiment with CML cells [2] (IM group: imatinib 150 mg/kg/day alone, placebo 15 days) amounted to 22 days; with CML cells [2] (IM+anti-G-CSF group: imatinib 150 mg/kg/day + G-CSF neutralizing antibody 500 μg/kg/day), 23 days; in experiment [3] (placebo 15.5 days), 23.5 days; in experiment [5] (placebo 14 days), 27 days. Also, the “frequency of 32Dp210-GFP cells in bone-marrow mononucleic cells” value in experiment [5] is “about 55%”. In addition, the “frequency of CML cells (32Dp210-GFP cells) in the spleen” value in experiment [5] is recorded as “about 76%”. Also, the “CML (leukemia) cells in the bone marrow” value with CML cells [6] (imatinib 150 mg/kg/day alone, day 8 to day 14, analysed day 36) is recorded as 55.5%. Further, in the experiment with CML cells [6] (imatinib alone, day 14, after 7 doses, about 50% before treatment), the “proportion of CML cells in the bone marrow” value is “marked decrease”.
